# “Also recorded” adds a separate entry of the source. Where two headings read alike, the source gives them in different places. Numbered stars: 1 amine (or outer) side, 2 acyl side, 3 side chain; on linkers, the order of the positions; unused ones are H or OH. Square brackets hold non-standard residues; d marks the D form. Peptide text beside a SMILES is read from it. X1 = NCCCC[C@H](N)CN([C@@H](CCCCN)C(=O)[*:2])[*:1]; Ala(SiMe3) = C[Si](C)(C)C[C@H](N)C(=O)O; X2 = C[Si]1(C)CC(C(=O)[*:2])N([*:1])C1
# How the values were obtained:
# [1] = Plasma stability assay (UPLC/MS); format: in vitro ADME; conditions: 37°C; for half-life at 0.156 mM: rat
# Method: Rat plasma was obtained from blood by keeping the translucent phase after centrifugation at 15,000 g over 5 min. Plasma stability assay was carried out by incubating each compound at different incubation times in rat plasma at a final concentration of 0.156 mM. […] Then, 70 μl of a solution containing 10% trichloroacetic acid (TCA) and 0.5% nicotinamine, an internal standard, was added to stop the degradation by proteases. After centrifugation at 15,000 g for 30 min, supernatant was filtered through 0.22-μm filter and analyzed by UPLC/MS (Water H Class Acquity UPLC, mounted with Acquity UPLC BEH C18 column, 1.7 μm, 2.1 × 50 mm and paired to a SQ Detector 2). Compounds 1, 2, and 5 were analyzed using the mass or UV spectrum. Quantification was done by determining the area under the curve (AUC) ratio of each compound over AUC of nicotinamine for each incubation time. Data were plotted into GraphPad Prism 8 and the half-life of each compound was calculated using one-phase decay fit and represented the mean ± SEM of minimum three separate experiments.
# [2] = test system: Sprague-Dawley rats; test: Body temperature measurement after intrathecal injection; format: in vivo; conditions: rat; for effect on body temperature: compared to the saline-treated group; for Hypothermia ΔTemp: 30 μg/kg, i.t., change in body temperature from baseline at 60 min
# Source text: The experimental procedures in this study were approved by the Animal Care Committee of the Université de Sherbrooke (protocol n°035-18B) and were in accordance with policies and directives of the Canadian Council on Animal Care. Adult male Sprague-Dawley rats, weighing 175–225 g (Charles River laboratories, St-Constant, Québec, Canada), were maintained on a 12-h light/dark cycle with free access to food and water and were housed two per cage on Aspen shavings in a quiet room.
# Rats were lightly anesthetized with isoflurane/oxygen (Baxter corporation, Mississauga, ON, Canada; 2 L/min) flow and 25 μl of each compound were injected intrathecally with a 27-G 1/2 needle (BD PrecisionGlide, USA) into the subarachnoid space between vertebrae L5 and L6. Analogs 1–14 were diluted in physiological saline at 5 mg/ml, whereas compounds 15 and 16 were diluted in DMSO. For body temperature measurement, the injected solution of these both compounds contained 6% DMSO at final concentration (30 μg/kg).
# Three consecutive days prior to testing, animals were individually acclimatized to manipulations and to a thermistor probe 5 min per day. The day of the test, experiments were always performed in a quiet room and between 8:00 and 12:00 PM. to reduce any variation related to the circadian rhythm. Body temperature was measured using a thermistor probe inserted into the rectum of adult Sprague-Dawley rats. Temperatures were recorded immediately before (baseline) and each 10 min for up to 60 min following intrathecal administration of saline, vehicle (6% DMSO) or NT analogs at 30 μg/kg. Changes in body temperature (Δ body temp) from baseline were determined for each animal. Data are expressed as mean ± SEM of 5 to 20 animals per condition.
# Data are expressed as mean ± standard errors of the mean (SEM). All graphs and statistical analysis were performed using GraphPad Prism 8 (GraphPad software, La Jolla, CA, USA). A two-way ANOVA followed by Bonferroni's multiple comparisons test was used to determine significant differences between drug- and vehicle-treated rats at different timepoints post-injection.
# [3] = biological target: hNTS2 (Homo sapiens, UniProt O95665); test: Competitive radioligand binding assay, 125I-[Tyr3]-NT displacement, 1321N1 cell membranes; conditions: for NTS1/NTS2 selectivity: ratio of Ki hNTS1 to Ki hNTS2; for fold decrease in NTS2 binding affinity: compared to NT(8-13)
# Method: (§1) All media and additives are from Wisent (St-Bruno, QC). […] After 1 h of incubation at room temperature, the binding reaction mixture was transferred in polyethylenimine-coated 96-well-filter plates (Millipore, Billerica, MA). Reaction was terminated by filtration, and plates were washed three times with 200 μl of ice-cold binding buffer. […] Data were plotted using GraphPad Prism 8 using the One-site—Fit log (IC50) and represent the mean ± SEM of at least three separate experiments performed in triplicate.
# [4] = biological target: hNTS1 (Homo sapiens, UniProt P30989); test: Competitive radioligand binding assay, 125I-[Tyr3]-NT displacement, CHO-K1 cell membranes; conditions: for fold decrease in NTS1 binding affinity: compared to NT(8-13)
# Method: as §1
# Sequence of hNTS2 (O95665 whole entry): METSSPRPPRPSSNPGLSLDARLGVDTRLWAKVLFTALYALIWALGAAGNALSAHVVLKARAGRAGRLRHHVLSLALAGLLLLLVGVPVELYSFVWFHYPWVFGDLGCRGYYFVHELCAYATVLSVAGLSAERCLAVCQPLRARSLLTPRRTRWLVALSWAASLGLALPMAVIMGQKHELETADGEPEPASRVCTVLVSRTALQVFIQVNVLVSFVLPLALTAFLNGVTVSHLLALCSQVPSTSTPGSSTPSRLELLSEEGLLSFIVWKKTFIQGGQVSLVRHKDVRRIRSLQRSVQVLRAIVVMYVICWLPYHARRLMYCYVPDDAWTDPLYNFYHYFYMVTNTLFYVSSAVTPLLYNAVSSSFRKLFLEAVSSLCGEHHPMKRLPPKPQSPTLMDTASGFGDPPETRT
# Sequence of hNTS1 (P30989 whole entry): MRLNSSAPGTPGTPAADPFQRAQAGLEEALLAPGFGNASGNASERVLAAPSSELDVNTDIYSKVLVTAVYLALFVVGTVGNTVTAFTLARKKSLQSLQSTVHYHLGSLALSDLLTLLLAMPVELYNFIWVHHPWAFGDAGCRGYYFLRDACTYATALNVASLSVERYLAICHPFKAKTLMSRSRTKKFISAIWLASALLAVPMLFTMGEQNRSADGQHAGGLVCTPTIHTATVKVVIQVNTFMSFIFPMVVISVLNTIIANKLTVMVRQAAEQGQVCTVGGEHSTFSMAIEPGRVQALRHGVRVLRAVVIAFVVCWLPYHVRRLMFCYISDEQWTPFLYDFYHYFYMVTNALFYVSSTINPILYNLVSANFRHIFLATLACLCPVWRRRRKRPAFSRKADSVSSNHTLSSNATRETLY
SMILES,half-life at 0.156 mM ([1]; short incubation times) [h],effect on body temperature ([2]; 30 μg/kg i.t.),Hypothermia ΔTemp [2] [°C],Ki [3] [nM],"Plasma stability (Half-life) ([1]; rat plasma, 0.156 mM, short incubation times) [min]","half-life at 0.156 mM ([1]; plasma, short incubation times) [h]",Ki [4] [nM],"Ki ([3]; mean ± SEM, at least three experiments, Cheng-Prusoff from IC50, read-out: Binding, Ki hNTS2) [nM]",NTS1/NTS2 selectivity [3],"half-life at 0.156 mM ([1]; plasma, incubation up to 24 h) [h]","temperature drop ([2]; for up to 60 min, 30 μg/kg i.t.)",fold decrease (loss) of affinity at NTS1 ([4]; compared to 3) [fold],fold decrease in NTS1 binding affinity [4] [fold],fold decrease in NTS2 binding affinity [3] [fold]
"CC[C@H](C)[C@H](NC(=O)[C@H](Cc1ccc(O)cc1)NC(=O)[C@@H]1CCCN1C(=O)[C@H](CCCCN)NC(=O)[C@@H](N)CCCCN)C(=O)N[C@@H](CC(C)C)C(=O)O [Compound 1, H-Lys-Lys-Pro-Tyr-Ile-Leu-OH]",0.0267 ± 0.005,not effective in reducing the body temperature; also recorded: not effective to induce drop in body temperature,0.27 ±0.2,1.1 ± 0.2,–,–,–,–,–,–,–,–,–,–
"CC[C@H](C)[C@H](NC(=O)[C@H](Cc1ccc(O)cc1)NC(=O)[C@@H]1CCCN1C(=O)[C@H](CCCCN)NC[C@@H](N)CCCCN)C(=O)N[C@@H](CC(C)C)C(=O)O [Compound 2, H-LysΨ[CH2NH]Lys-Pro-Tyr-Ile-Leu-OH] (H-[X1]PYIL-OH)",–,–,–,–,8.4 ± 2.0,< 0.167,2 ± 0.8,0.31 ± 0.08,6,–,–,–,–,–
"CC[C@H](C)[C@H](NC(=O)[C@H](Cc1ccc(O)cc1)NC(=O)[C@@H]1CCCN1C(=O)[C@H](CCCCN)NC[C@@H](N)CCCCN)C(=O)N[C@@H](C[Si](C)(C)C)C(=O)O [Compound 4, H-Lysψ[CH2NH]Lys-Pro-Tyr-Ile-TMSAla-OH] (H-[X1]PYI[Ala(SiMe3)]-OH)",–,long-lasting hypothermia,−2.0 ± 0.10,0.55 ± 0.1,–,–,2.5 ± 0.2,–,4.5,2 ± 0.2,more than 2 °C,140,–,–
"CC[C@H](C)[C@H](NC(=O)[C@H](Cc1ccc(O)cc1)NC(=O)C1C[Si](C)(C)CN1C(=O)[C@H](CCCCN)NC(=O)[C@@H](N)CCCCN)C(=O)N[C@@H](CC(C)C)C(=O)O (stereo partly drawn) [Compound 5, H-Lys-Lys-Sip-Tyr-Ile-Leu-OH] (H-KK[X2]YIL-OH)",–,not effective in reducing the body temperature; also recorded: not effective to induce drop in body temperature,−0.07 ± 0.2,–,–,–,–,–,–,–,–,–,–,–
"CC[C@H](C)[C@H](NC(=O)[C@H](Cc1ccc(O)cc1)NC(=O)C1C[Si](C)(C)CN1C(=O)[C@H](CCCCN)NC[C@@H](N)CCCCN)C(=O)N[C@@H](CC(C)C)C(=O)O (stereo partly drawn) [Compound 6, H-Lysψ[CH2NH]Lys-Sip-Tyr-Ile-Leu-OH]",–,slight decrease in core body temperature; also recorded: hypothermic response,−2.2 ± 0.3,130 ± 30,–,–,300 ± 50,–,2.3,22 ± 2,–,–,200,~50
"CC[C@H](C)[C@H](NC(=O)[C@H](Cc1ccc(O)cc1)NC(=O)C1C[Si](C)(C)CN1C(=O)[C@H](CCCCN)NC(=O)[C@@H](N)CCCCN)C(=O)N[C@@H](C[Si](C)(C)C)C(=O)O (stereo partly drawn) [Compound 7, H-Lys-Lys-Sip-Tyr-Ile-TMSAla-OH] (H-KK[X2]YI[Ala(SiMe3)]-OH)",–,not effective in reducing the body temperature; also recorded: not effective to induce drop in body temperature,−0.30 ± 0.6,16 ± 4,–,–,55 ± 5,–,3.4,–,–,–,35,6
"CC[C@H](C)[C@H](NC(=O)[C@H](Cc1ccc(O)cc1)NC(=O)C1C[Si](C)(C)CN1C(=O)[C@H](CCCCN)NC[C@@H](N)CCCCN)C(=O)N[C@@H](C[Si](C)(C)C)C(=O)O (stereo partly drawn) [Compound 8, H-LysΨ[CH2NH]Lys-Sip-Tyr-Ile-TMSAla-OH]",–,–,–,–,–,–,–,–,–,> 20,–,–,–,–

# Reference: article PMC7291367, “Insightful Backbone Modifications Preventing Proteolytic Degradation of Neurotensin Analogs Improve NTS1-Induced Protective Hypothermia” (Frontiers in Chemistry, 2020)
